# Measurements as given in patent US8653048B2 (Sanlugen Pharmatech Ltd., priority 2009, dated 2014).
# How the values were obtained:
# [1] = system: NCI-H460: a human lung cancer cell line; assay: MTT analytical method, NCI-H460 cells; type: cell-based; conditions: 72 h
# Description: (§1) MTT analytical method was used to test the prodrugs for various tumor cells.
# (§2) • 1) Cell lines: NCI-H460, A549, LOVO, HT-29, MDA-MB-231, SGC7901, HepG2 or BEL-7402 cell lines. Culture: adherent culturing in D-MEM (Hyclone, Inc.) containing 10% fetal calf serum. The initial cell concentration was about 3×10^5 /mL. The cell was passaged by 1:3 dilution in every 2-3 days. On the day before the test, the cell was passaged by 1:2 dilution, the cell concentration for the test was 5-10×10^5 /mL. • 2) Dissolution and dilution of compounds: according to the weight and molecular weight of the drugs provided, 100-200 μL of DMSO was added. Then normal saline was added to make the final diluted concentration of the drugs be 5 mM (Note that the final concentration of DMSO should not be more than 10%). • 3) D-MEM or RPMI 1640 cell culture medium, Gibco, Inc. • 4) Fetal calf serum Hyclone, Inc. • 5) Cell dissociation buffer, 0.25% Trypsin+0.02% EDTA. • 6) MTT solution, MTT Powder (Sigma) were dissolved in PBS buffer solution to make a solution of 5 mg/mL. The solution was filtered by a 0.22 μm micropore membrane and stored at −20° C. • 7) PBS buffer solution. • 8) 10% acidified SDS, 0.01N HCl. • 9) Centrifuge tubes, haustorial tubes etc. (BD, Inc.); 96-well plates (Costatr, Inc.) Procedures: • 1) Cell inoculation: Cells grown for 24 hours after passage, which cells were in good growth state, were used. The cells were harvested by the routine method. The cell concentration was adjust with a fresh culture solution to 2×10^5/mL (for adherent cells)-3×10^5/mL (for suspension cells). The adherent cells were inoculated at 100 μL/well and then cultivated in an incubator with 5% CO2 at 37° C. for 24 h. Thereafter the used culture solution was removed and 95 μL/well of fresh culture solution was added. The suspension cells were inoculated at 95 μL/well directly. • 2) Drugs treatment: 9 concentration grades were designed for every drug, and every concentration had 3 wells. The control group had 5 wells. The control group was tested simultaneously in each test. The final concentrations of a drug added were […], and 5 μL normal saline was added to the control group. • 3) Cell culture and detection: the cells were cultured in an incubator with 5% CO2 at 37° C. for 72 h after the drug was added, then 10 μL MTT was added to each well and the culture was continued for 4 h. 100 μL of 10% SDS (containing 0.01N HCl) was added to each well. After 24 h, the absorbance (A) of each well was determined by Bio-rad 680 ELISA with the detection wavelength of 570 nm and the reference wavelength of 630 nm. Calculation:
# (§3) First, the absorbance (A) of each well was averaged (removing any data with big difference). […] A0 was the mean absorbance of the control wells. The effect curve of the drug concentration was drawn using EXCEL software and the drug concentration for 50% cell survival was calculated according to an appropriate computing methods.
# [2] = system: Bel7402: a human liver cancer cell line; assay: MTT analytical method, Bel7402 cells; type: cell-based; conditions: Bel-7402, 72 h
# Description: as §1, §2, §3
# [3] = system: MDA-MB-231: a human breast cancer line; assay: MTT analytical method, MDA-MB-231 cells; type: cell-based; conditions: MDA-MB-231, MTT, 72 h
# Description: as §1, §2, §3
# [4] = Pharmacokinetics of gemcitabine in mice, intravenous and oral; type: in vivo; conditions: both sexes, Kunming, mouse, plasma, 50 mg/kg; for MRT last: read-out: MRT0-t
# Method: (§4) Kunming strain white mice (25+1 g, provided by Experimental Animal Center of Shandong University, half of which were male, half were female).
# The solution was filtered and sterilized using a 0.22 μm microfiltration membrane.
# 120 healthy Kunming mice were taken and divided into two groups randomly. […] The second group was given gemcitabine by intravenous injection in a tail vein. Five mice were settled parallel at each time point. The dosage was 50 mg/kg (equivalent to 0.2 mL per mouse). The mice were fasted but allowed to drink for a 12 h period before administration. Blood samples were drawn from eyebase veniplex at 5 min, 15 min, 30 min, 45 min, 1 h, 2 h, 4 h, 6 h, 8 h, 12 h, 24 h, 48 h after the administration and put into hepain sodium treated centrifuge tubes containing 2.5 μL tetrahydrouridine solution (THU, 10 mg/ml) and centrifuged for 15 min at 4000 r/min. Isopropanol (1 mL) was added into the solution and vortexed for 30 s and kept still for 5 min. 2.5 ml of EtOAc was added and votexed and centrifuged at 4000 rpm for 15 minutes. The supernatant was taken and dried by blowing in nitrogen. The dried sample was redissolved in 200 μL HPLC mobile phase solution. 20 μL sample was loaded to the HPLC. The chromatography and peak area were recorded.
# [5] = Pharmacokinetics of SL-01 and SL-02 in mice, intragastric; type: in vivo; conditions: both sexes, Kunming, mouse, plasma, po, SL-01 100 mg/kg intragastric
# Method: as §4
# 125 mg of SL-01 or SL-02 were weighed accurately and added into 10 mL volumetric flask. Water (containing 0.1% Tween-80) was added to the mark and mixed uniformly to get the suspensions of SL-01 or SL-02.
# 100 healthy Kunming mice were taken and divided into two groups randomly. The first group was given SL-01 and the second group was given SL-02. Five mice were settled parallel at each time point. SL-01 and SL-02 were administrated intragastricly with a dosage at 100 mg/kg (equivalent to 0.2 mL per mouse). The mice were fasted but allowed to drink for a 12 h period before administration. Blood samples were drawn from eyebase veniplex at 5 min, 15 min, 30 min, 45 min, 1 h, 2 h, 4 h, 6 h, 8 h, 12 h, 24 h, 48 h after the administration and put into heparin sodium treated centrifuge tubes containing 2.5 μL tetrahydrouridine solution (THU, 10 mg/ml) and centrifuged for 15 min at 4000 r/min. Isopropanol (1 mL) was added into the solution and vortexed for 30 s and kept still for 5 min. 2.5 ml of EtOAc was added and votexed and centrifuged at 4000 rpm for 15 minutes. The supernatant was taken and dried by blowing in nitrogen. The dried sample was redissolved in 200 μL HPLC mobile phase solution. 20 μL sample was loaded to the HPLC. The chromatography and peak area was recorded. The plasma concentrations of SL-01 and SL-02 was calculated. The average concentration of SL-01 and SL-02 was plotted with the time.
Structure (SMILES),IC50 [1],IC50 [2],IC50 [3],AUC(0-t) ([4]; iv),Cmax ([4]; iv),Tmax ([4]; iv),half-life ([4]; iv),MRT last ([4]; iv),"bioavailability ([4]; oral, AUCoral/AUCiv, mice, read-out: Absolute bioavailability)",AUC(0-t) ([4]; po),Cmax ([4]; po),Tmax ([4]; po),half-life ([4]; po),MRT last ([4]; po),"AUC(0-t) ([5]; analyte SL-01, read-out: AUC0-t, SL-01 Administration Group)","Cmax ([5]; analyte SL-01, read-out: Cmax, SL-01 Administration Group)","MRT last ([5]; analyte SL-01, read-out: MRT0-t, SL-01 Administration Group)","half-life ([5]; analyte SL-01, read-out: T1/2, SL-01 Administration Group (converted))","Tmax ([5]; analyte SL-01, read-out: Tmax, SL-01 Administration Group)"
"Nc1ccn([C@@H]2O[C@H](CO)[C@@H](O)C2(F)F)c(=O)n1 [Gemcitabine, gemcitabine, reference compound]",< 1 µM,4 µM,< 1 µM,11300 ng·h/mL,11500 ng/mL,4.98 min,58.2 min,64.2 min,35.6%,4020 ng·h/mL,2600 ng/mL,30 min,49.8 min,76.8 min,–,–,–,–,–
"CCCCCCCCCCCCOC(=O)c1nccnc1C(=O)Nc1ccn([C@@H]2O[C@H](CO)[C@@H](O)C2(F)F)c(=O)n1 [Compound 4, Dodecyl-3-((1-((2R,4R,5R)-3,3-difluoro-4-hydroxy-5-(hydroxymethyl)-tetrahydrofuran-2-yl)-2-oxo-1,2-dihydropyrimidin-4-yl)carbamoyl)pyrazine-2-carboxylate]",< 2 µM,8 µM,> 16 µM,–,–,–,–,–,–,–,–,–,–,–,1810 ng·h/mL,4370 ng/mL,21.6 min,31.1 min,15 min
